“Also recorded” adds a separate entry of the source.
Tests used:
Format in all cases: cell-based, human
TNF-alpha [1] = test: TNF-alpha production by PBMC of healthy volunteers, Cytometric Bead Array
TNF-alpha [2] = test: TNF-alpha production by PBMC from patients with rheumatoid arthritis, CBA
Description: (§1) CBA protocol was followed according to the manufacturer's instructions. The election of microparticles was performed following the summary of FIG. 1.
(§2) The acquisition on samples was performed with the BD FACS Array Bioanalyser System (FACSArray, Becton Dickinson, San José, Calif., USA) and the analysis of the results was completed with the software FCAP Array (Becton Dickinson) in a PC computer.
(§3) Briefly, the experimental protocol consisted of a plate pre-washing out with Wash Buffer. After decantation, the mixture of capture microparticles was re-suspended in the vortex. Standards and samples were added in the adequate dilution. […]
In another experiment, PBMC (5×10^4 cells per well) from 7 patients with rheumatoid arthritis were cultured in duplicate in 200 μl of complete medium supplemented with the highest solvent (10^−6 M), and 10^−6 M, 10^−7 M and 10^−8 M compound 12 and in the presence and absence of either LPS (10 μg/ml), or anti-CD3 (12.5 ng/ml) (Orthoclone OKT3, Orthopharmaceutical Corporation, Raritan N.J., USA)+anti-CD28 (⅓×10^5) (Clon 15E8, Menarini, Madrid, Spain), during 24 hours. Culture supernatants were frozen at −20° C. and the concentration of TNF-alpha quantified by BD FACS Array Bioanalyser by using CBA Flex Set (Becton Dickinson), specific for determining the concentration of that cytokine, following the manufacturer instructions.

IFN-gamma = IFN-gamma production by PBMC from healthy volunteers, CBA
Description: as §1, §2
as §3, with “dilution. After permanent stirring incubation during 1 h, the PE detection reagent was added and incubated again during 2 h at room temperature.” for “dilution.”
PBMC (5×10^4 cells per well) from 13 healthy volunteers were cultured in duplicate in 200 μl of complete medium supplemented with the highest solvent concentration (10^−6 M), and 10^−6 M, 10^−7 M and 10^−8 M of compound 12 in the presence or absence, either of LPS (10 μg/ml), or anti-CD3 (12.5 ng/ml)+anti-CD28 (⅓×10^5), during 24 hours. Culture supernatants were frozen at −20° C. and the concentration of IFN-gamma was quantified by BD FACS Array Bioanalyser by using CBA Flex Set (Becton Dickinson), specific to determine the concentration of IFN-gamma, following the manufacturer instructions.

IL-10 = IL-10 production by PBMC from healthy volunteers, CBA; settings: FIG. 9
Description: as §1, §2
Briefly, the experimental protocol consisted of a plate pre-washing out with Wash Buffer. After decantation, the mixture of capture microparticles was re-suspended in the vortex. Standards and samples were added in the adequate dilution. After permanent stirring incubation during 1 h, the PE detection reagent was added and incubated again during 2 h at room temperature. After a washing-out, the acquisition was performed in the flow cytometer.
The effects of compound 12 on IL-10 production by the PBMC from healthy volunteers and patients with rheumatoid arthritis were investigated in the presence and absence of LPS stimulation and with the combination of monoclonal antibodies anti-CD3 and anti-CD28. […]

CD62L in monocytes = test: Shedding of CD62L in monocytes of PBMC, flow cytometry; settings: healthy volunteers; FIG. 12b
Description: Direct immuno-fluorescence techniques of one colour with monoclonal antibodies phycoerythrin-labeled (PE) was used. PE is a fluorescent substance excitable with a 488 nm laser, which emits at 570 nm, and it is detectable and easily distinguishable by a flow cytometer. By using the antibody described in Table 1, a direct labelling was performed:
PBMC labelling: the process consisted in a labelling using 96 well V bottom plates. In each well, 5×10^4 cells are located, and afterwards centrifugated at 400×g during 5 minutes. After washing-out, cells are re-suspended and 5 μl of the corresponding monoclonal antibody are added. Cells are again re-suspended and the plate is incubated in darkness, during 20 minutes, at 4° C. Subsequently, 150 μl PBS are added and two wash-outs are performed. Finally, it is re-suspended in 150 μl PBS and collected in a cytometer tube, adding PBS up to a final volume of 0.3 ml.
For the counting, a FACSCalibur flow cytometer equipped with argon laser tuned at 488 nm was used in order to induce phycoerythrin fluorescence. The equipment, apart from the fluorescence channels, also provided information about the size (FSC) and cellular complexity (SSC).
As negative controls, the study cells with no labelling and other irrelevant labelled with monoclonal antibodies of equal isotypes than the ones used in the study (IgG1-FITC, PE y TC, IgG2a FITC, PE, TC), were used. […]

Cc1nc(OC2CCCC2)c(-c2ccc(S(C)(=O)=O)cc2)s1 [Compound 12, 4-cyclopentyloxy-5-(4-methylsulfonyl-phenyl)-2-methyl-thiazole]
Effect on TNF-alpha production by PBMC stimulated with LPS (TNF-alpha [1]; 10^−6 M, 10^−7 M and 10^−8 M, statistically significant (p<0.05), FIG. 3): diminished TNF-alpha production
Effect on TNF-alpha secretion by PBMC, anti-CD3 and anti-CD28 stimulated or spontaneous (TNF-alpha [1]; anti-CD3 + anti-CD28, or absence of exogenous stimuli): neither TNF-alpha secretion by PBMC stimulated with monoclonal antibodies anti-CD3 and anti-CD28 nor spontaneous one (as observed in the absence of exogenous stimuli) was modified
Effect on TNF-alpha production by PBMC, spontaneous or anti-CD3 and anti-CD28 stimulated (TNF-alpha [2]): neither inhibited the spontaneous TNF-alpha production nor the one obtained after stimulation with monoclonal antibodies anti-CD3 and anti-CD28
Effect on TNF-alpha production in LPS-stimulated PBMC (TNF-alpha [2]; 10^−6 M, p<0.05, FIG. 4): significantly inhibited
Effect on IFN-gamma production by PBMC, LPS-stimulated or anti-CD3 and anti-CD28 stimulated (IFN-gamma; 10^−6 M, p<0.05, FIG. 5): significantly inhibited
Effect on spontaneous secretion of IFN-gamma by PBMC (IFN-gamma; no stimulus): not modified
Effect on IL-10 production by PBMC in the presence and absence of LPS or anti-CD3 + anti-CD28 (IL-10): no effects; also recorded: No statistical differences were found
Effect on CD62L shedding in monocytes (CD62L in monocytes): significant differences were not observed

Source: US7781594B2, “5-(4-methanesulfonyl-phenyl)-thiazole derivatives for the treatment of acute and chronic inflammatory diseases” (Faes Farma, S.A., priority 2008, dated 2010)
